Patent US11384381B2, “Reaction accelerating agent” (Kikkoman Corporation, priority 2016, dated 2022)

What was measured:
Format in all cases: biochemical
[1] = system: cholesterol oxidase (CHO-CE); experiment: Acceleration of cholesterol detection reaction with small amount of cholesterol oxidase (Example 13); details: 0.04% (w/v) compound, 2.31 U/ml CHO-CE; for effect of accelerating cholesterol detection reaction: versus not added; for Degree of progression of reaction (%) after 7.5 minutes / Degree of progression of reaction (%) after 10 minutes: cholesterol detection reaction, ΔA/ΔA100%; for Degree of progression of reaction (%) after 7.5 minutes: 2.5 minutes after addition of second reagent, not added: 65; for Degree of progression of reaction (%) after 10 minutes: 5 minutes after addition of second reagent, not added: 88
Protocol: Next, in this Example, the degree of acceleration of cholesterol detection reaction by the compound of the present invention was determined using a small amount of cholesterol oxidase.
A reagent for cholesterol measurement having the following composition was prepared, and the measurement of cholesterol was carried out using Bio Majesty JCA-BM […] (manufactured by JEOL Ltd.).
(§1) 32 μM cholesterol (manufactured by Wako Pure Chemical Industries, Ltd.)
(§2) 5.0% (v/v) Triton X-100 (manufactured by Wako Pure Chemical Industries, Ltd.)
(§3) 4.0% (w/v) sodium cholate (manufactured by Wako Pure Chemical Industries, Ltd.)
(§4) 30 mM MOPS-NaOH buffer solution, pH 7.0
(§5) 10 U/ml peroxidase PEO-301 (Toyobo Co., Ltd.)
(§6) 0.023 mM 10-(carboxymethylaminocarbonyl)-3,7-bis(dimethylamino)phenothiazine sodium (DA-67, manufactured by Wako Pure Chemical Industries, Ltd.)
(§7) 0.04% (w/v) of the compound of Comparative Example 2, any one compound of the present invention, or compound-free (Comparative Example 1) ion-exchange water as shown in Table 1
(§8) 10 mM MOPS-NaOH buffer solution, pH 7.0
2.31 U/ml CHO-CE (manufactured by Kikkoman Biochemifa Company)
(§9) 8 μl of the sample was added to 96 μl of the first reagent-E, and the mixture was incubated at 37° C. for 5 minutes. Then, 24 μl of the second reagent-J was added thereto, and the quantitative reaction of hydrogen peroxide resulting from the oxidation of cholesterol was allowed to progress at 37° C. for 5 minutes. The absorbance (A694 and A751) of the reaction solution for light at wavelengths of 694 nm and 751 nm was measured over time for 10 minutes after the mixing of the sample with the first reagent-E to determine the value of subtraction of A751 from A694, i.e., the value A694/751. Subsequently, ΔA was calculated by subtracting, from A694/751, the value of (104/128) times A694/751 4.8 minutes after the mixing of the sample with the first reagent-E. Incidentally, 5 minutes after the mixing of the sample with the first reagent-E represents the time immediately before the addition of the second reagent-J.
(§10) Next, ΔA calculated in this Example was divided by ΔA100% defined in Example 12 to calculate the degree of progression of cholesterol detection reaction. The degree of progression of cholesterol detection reaction 7.5 and 10 minutes after the mixing of the sample with the first reagent-E (in other words, 2.5 and 5 minutes after the addition of the second reagent-J) is shown in Table 10.

[2] = system: cholesterol oxidase (CHO-CE); experiment: Cholesterol detection reaction completed with excess cholesterol oxidase (Example 12); details: 0.04% (w/v) compound, 11.6 U/ml CHO-CE (excess), 32 μM cholesterol, pH 7.0, 37° C.; for ΔA9 min: change in A694-A751 9 minutes after mixing; for ΔA10 min: change in A694-A751 10 minutes after mixing, defined as ΔA100%
Protocol: In this Example the amount of change in absorbance is determined when the detection reaction for the substrate cholesterol was completed using an excess amount of cholesterol oxidase (CHO-CE), which is an oxidase.
A reagent for cholesterol measurement having the following composition was prepared, and the measurement of cholesterol using cholesterol oxidase was carried out using Bio Majesty JCA-BM 1650 (manufactured by JEOL Ltd.).
as §1, §2, §3, §4, §5, §6, §7, §8
11.6 U/ml CHO-CE (manufactured by Kikkoman Biochemifa Company)
as §9, with “second reagent-I” for “second reagent-J”, “Incidentally, 4.8” for “Incidentally, 5”, “second reagent-I. ΔA 9 minutes and 10 minutes after the mixing of the diluted sample with the first reagent-E (ΔA9min and ΔA10min) are shown in Table 9.” for “second reagent-J.”
In other words, it can be recognized that the quantitative reaction of cholesterol, i.e., the quantitative reaction of hydrogen peroxide resulting from the oxidation of cholesterol, was completed in 10 minutes after the mixing of the diluted sample with the first reagent-E. Accordingly, in Examples 12 and 13, ΔA10min in each Comparative Example or the present invention was defined as ΔA when 100% of the quantitative reaction of cholesterol progressed under each condition (ΔA100%).

[3] = system: sarcosine oxidase (SOD-TE); experiment: Acceleration of sarcosine detection reaction with small amount of sarcosine oxidase (Example 11); details: 0.04% (w/v) compound, 12.3 U/ml SOD-TE; for effect of accelerating sarcosine detection reaction: versus not added; for Degree of progression of reaction (%) after 7.5 minutes / Degree of progression of reaction (%) after 10 minutes: sarcosine detection reaction, ΔA/ΔA100%; for Degree of progression of reaction (%) after 7.5 minutes: 2.5 minutes after addition of second reagent, not added: 60; for Degree of progression of reaction (%) after 10 minutes: 5 minutes after addition of second reagent, not added: 82
Protocol: Next, in this Example, the degree of acceleration of sarcosine detection reaction by the compound of the present invention was determined using a small amount of sarcosine oxidase.
A reagent for sarcosine measurement having the following composition was prepared, and the measurement of sarcosine was carried out using Bio Majesty JCA-BM1650 (manufactured by JEOL Ltd.).
32 μM sarcosine (manufactured by Wako Pure Chemical Industries, Ltd.)
30 mM MOPS-NaOH buffer solution, pH 8.0
0.2% (v/v) NP-10 (manufactured by HELM)
as §5
0.023 mM 10-(carboxymethylaminocarbonyl)-3,7-bis(dimethylamino)phenothiazine sodium
(DA-67, manufactured by Wako Pure Chemical Industries, Ltd.)
as §7
10 mM MOPS-NaOH buffer solution, pH 8.0
12.3 U/ml SOD-TE (manufactured by Kikkoman Biochemifa Company)
8 μl of the sample was added to […] of the first reagent-D, and the mixture was incubated at 37° C. for 5 minutes. Then, 24 μl of the second reagent-H was added thereto, and the quantitative reaction of hydrogen peroxide resulting from the oxidation of sarcosine was allowed to progress at 37° C. for 5 minutes. The absorbance (A694 and A751) of the reaction solution for light at wavelengths of 694 nm and 751 nm was measured over time for 10 minutes after the mixing of the sample with the first reagent-D to determine the value of subtraction of A751 from A694, i.e., the value A694/751. Subsequently, ΔA was calculated by subtracting, from A694/751, the value of (104/128) times A694/751 4.8 minutes after the mixing of the sample with the first reagent-D. Incidentally, 5 minutes after the mixing of the sample with the first reagent-D represents the time immediately before the addition of the second reagent-H.
as §10, with “10” for “12”, “sarcosine” for “cholesterol”, “reagent-D” for “reagent-E”, “reagent-H)” for “reagent-J)”, “8.” for “10.”

| Compound | effect of accelerating cholesterol detection reaction [1] | Degree of progression of reaction (%) after 7.5 minutes [1] | Degree of progression of reaction (%) after 10 minutes [1] | ΔA9 min [2] | ΔA10 min [2] | effect of accelerating sarcosine detection reaction [3] | Degree of progression of reaction (%) after 7.5 minutes [3] | Degree of progression of reaction (%) after 10 minutes [3] |
| --- | --- | --- | --- | --- | --- | --- | --- | --- |
| O=C([O-])c1cc(N=Nc2ccc([N+](=O)[O-])cc2)ccc1O.[Na+] [Mordant Orange 1] | effect of accelerating cholesterol detection reaction | 74% | 94% | 0.041 | 0.041 | effect of accelerating sarcosine detection reaction | 67% | 88% |
| O=C(O)c1cc(N=Nc2ccc3cc(S(=O)(=O)O)ccc3c2)ccc1O.[Na] [Chrome Yellow] | effect of accelerating cholesterol detection reaction | 67% | 91% | 0.071 | 0.072 | effect of accelerating sarcosine detection reaction | 65% | 87% |
| Acid Red 151 | effect of accelerating cholesterol detection reaction | 74% | 94% | 0.036 | 0.036 | effect of accelerating sarcosine detection reaction | 68% | 89% |
| COc1cc(N=Nc2ccc(N)cc2)c(C)cc1N [Disperse Diazo Black 3BF] | effect of accelerating cholesterol detection reaction | 66% | 97% | 0.028 | 0.032 | effect of accelerating sarcosine detection reaction | 63% | 84% |
| COc1cc(N=Nc2cccc(S(=O)(=O)[O-])c2)ccc1NC(=O)Nc1ccc(N=Nc2ccc(O)c(C(=O)[O-])c2)cc1.[Na+].[Na+] [Direct Yellow 44] |  |  |  |  |  | effect of accelerating sarcosine detection reaction | 68% | 89% |
| O=S(=O)([O-])c1cccc(N=Nc2ccc(Nc3ccccc3)cc2)c1.[Na+] [Acid Yellow 36] | effect of accelerating cholesterol detection reaction | 73% | 92% | 0.033 | 0.033 |  |  |  |
| O=C([O-])c1cc(N=Nc2cccc([N+](=O)[O-])c2)ccc1O.[Na+] [Alizarin Yellow GG] | effect of accelerating cholesterol detection reaction | 73% | 93% | 0.039 | 0.039 | effect of accelerating sarcosine detection reaction | 64% | 86% |
| Cc1nn(-c2cc(S(=O)(=O)[O-])ccc2Cl)c(O)c1N=Nc1ccccc1.[Na+] [Acid Yellow 34] | effect of accelerating cholesterol detection reaction | 72% | 92% | 0.033 | 0.033 |  |  |  |
| Xylene Fast Yellow 2G |  |  |  |  |  | effect of accelerating sarcosine detection reaction | 64% | 86% |
